According to patent publication US20110065916A1, “METHOD OF MAKING IMIDAZOAZEPINONE COMPOUNDS” (priority 2007, published 2011):

Test system: human T-bet
Assay: HEKT-bet-luc assay (normalized HEKT-bet IC50)
Format: cell-based
Conditions: Homo sapiens, HEK293, 24 h, Table 4, engineered HEK cells, compound 24 hours, normalized to reference ER-819544
Procedure: HEKT-bet-luc assay: This assay measures a T-bet dependent reporter (luciferase) activity in engineered HEK cells that express a human T-bet and a T-box responsive element driving luciferase reporter. HEKT-bet cells were plated at 2×10^4/well in 96-well plate and compound was added into cell culture for 24 hours. Luciferase activity was measured by adding 50 μl of Steady-Glo reagent (Promega) and samples were read in Victor V reader (PerkinElmer). The activity of compound was determined by comparing compound treated samples to non-compound treated vehicle controls. The IC50 values were calculated utilizing a maximum value corresponding to the amount of luciferase in the absence of a test compound and a minimum value corresponding to a test compound value obtained at maximum inhibition.
Determination of Normalized HEKT-bet IC50 values: Compounds were assayed in microtiter plates. Each plate included a reference compound which was ER-819544. The un-normalized IC50 value for a particular compound was divided by the IC50 value determined for the reference compound in the same microtiter plate to provide a relative potency value. The relative potency value was then multiplied by the established potency of the reference compound to provide the normalized HEKT-bet IC50 value. […] The IC50 values provided herein were obtained using this normalization method.

SMILES | IC50 [nM]
COc1cc2c(c(OC)c1)[C@@H](C)C=C1N(C2)C(=O)N(CCO)C12CCN(Cc1cc(C)cc(C)c1)CC2 (single isomer, unassigned) [ER-819786] | 30
COc1cc2c(c(OC)c1)[C@H](C)C=C1N(C2)C(=O)N(CCO)C12CCN(Cc1cc(C)cc(C)c1)CC2 (single isomer, unassigned) [ER-819787] | 170
COc1cc2c(c(OC)c1)[C@@H](C)C=C1N(C2)C(=O)N(C[C@@H](O)CO)C12CCN(Cc1cc(C)cc(C)c1)CC2 (single isomer, unassigned) [ER-819788] | 30
COc1cc2c(c(OC)c1)[C@H](C)C=C1N(C2)C(=O)N(C[C@@H](O)CO)C12CCN(Cc1cc(C)cc(C)c1)CC2 (single isomer, unassigned) [ER-819789] | 170
C=C(C)CN1C(=O)N2Cc3cc(OC)cc(OC)c3[C@@H](C)C=C2C12CCN(Cc1cc(C)cc(C)c1)CC2 (single isomer, unassigned) [ER-820006] | 60
C=C(C)CN1C(=O)N2Cc3cc(OC)cc(OC)c3[C@H](C)C=C2C12CCN(Cc1cc(C)cc(C)c1)CC2 (single isomer, unassigned) [ER-820007] | 1260
CCN1C(=O)N2Cc3cc(OC)cc(OC)c3[C@@H](C)C=C2C12CCN(Cc1nccn1C)CC2 [ER-811278-01] | 37
CCN1C(=O)N2Cc3cc(OC)cc(OC)c3[C@@H](C)C=C2C12CCN(Cc1csnn1)CC2 [ER-811279-01] | 210
CCN1C(=O)N2Cc3cc(OC)cc(OC)c3[C@@H](C)C=C2C12CCN(Cc1nc(C)oc1C)CC2 [ER-811283-01] | 53
CCN1C(=O)N2Cc3cc(OC)cc(OC)c3[C@@H](C)C=C2C12CCN(Cc1ccc3nccn3c1)CC2 [ER-811284-01] | 88
CCN1C(=O)N2Cc3cc(OC)cc(OC)c3[C@@H](C)C=C2C12CCN(Cc1cccc3c1OCCO3)CC2 [ER-811291-01] | 120
CCN1C(=O)N2Cc3cc(OC)cc(OC)c3[C@@H](C)C=C2C12CCN(Cc1cn3ccccc3n1)CC2 [ER-811292-01] | 130
CCN1C(=O)N2Cc3cc(OC)cc(OC)c3[C@@H](C)C=C2C12CCN(Cc1cnc3ccccc3n1)CC2 [ER-811297-01] | 74
CCN1C(=O)N2Cc3cc(OC)cc(OC)c3[C@@H](C)C=C2C12CCN(Cc1cccc3[nH]ccc13)CC2 [ER-811300-01] | 35
CCN1C(=O)N2Cc3cc(OC)cc(OC)c3[C@@H](C)C=C2C12CCN(Cc1cc3nccnc3s1)CC2 [ER-811301-01] | 260
CCN1C(=O)N2Cc3cc(OC)cc(OC)c3[C@@H](C)C=C2C12CCN(Cc1cccc(-n3cncn3)c1)CC2 [ER-811302-01] | 250
CCN1C(=O)N2Cc3cc(OC)cc(OC)c3[C@@H](C)C=C2C12CCN(Cc1ccc3occc3c1)CC2 [ER-811304-01] | 100
CCN1C(=O)N2Cc3cc(OC)cc(OC)c3[C@@H](C)C=C2C12CCN(Cc1c(C)nc3ccccn13)CC2 [ER-811305-01] | 31
CCN1C(=O)N2Cc3cc(OC)cc(OC)c3[C@@H](C)C=C2C12CCN(Cc1cccc3c1OCC3)CC2 [ER-811306-01] | 100
CCN1C(=O)N2Cc3cc(OC)cc(OC)c3[C@@H](C)C=C2C12CCN(Cc1cc3ccccc3o1)CC2 [ER-811308-01] | 56
CCN1C(=O)N2Cc3cc(OC)cc(OC)c3[C@@H](C)C=C2C12CCN(Cc1cn3ccsc3n1)CC2 [ER-811309-01] | 130

SMILES | IC50 [nM]
CCN1C(=O)N2Cc3cc(OC)cc(OC)c3[C@@H](C)C=C2C12CCN(Cc1c3ccccc3nn1C)CC2 [ER-811312-01] | 77
CCN1C(=O)N2Cc3cc(OC)cc(OC)c3[C@@H](C)C=C2C12CCN(Cc1cccc(-n3cccn3)c1)CC2 [ER-811317-01] | 74
CCN1C(=O)N2Cc3cc(OC)cc(OC)c3[C@@H](C)C=C2C12CCN(Cc1ccc3ccccc3n1)CC2 [ER-811323-01] | 42
CCN1C(=O)N2Cc3cc(OC)cc(OC)c3[C@@H](C)C=C2C12CCN(Cc1cccc3nsnc13)CC2 [ER-811332-01] | 67
CCN1C(=O)N2Cc3cc(OC)cc(OC)c3[C@@H](C)C=C2C12CCN(Cc1c(-c3ccc(F)cc3)nc3ncccn13)CC2 [ER-811346-02] | 200
CCN1C(=O)N2Cc3cc(OC)cc(OC)c3[C@@H](C)C=C2C12CCN(Cc1cccc3c1ccn3C)CC2 [ER-811349-01] | 43
CCN1C(=O)N2Cc3cc(OC)cc(OC)c3[C@@H](C)C=C2C12CCN(Cc1c(C)nc3sccn13)CC2 [ER-811352-02] | 13
CCN1C(=O)N2Cc3cc(OC)cc(OC)c3[C@@H](C)C=C2C12CCN(Cc1cccn1C(C)C)CC2 [ER-811358-01] | 220
CCN1C(=O)N2Cc3cc(OC)cc(OC)c3[C@@H](C)C=C2C12CCN(Cc1cccn1C(C)(C)C)CC2 [ER-811359-01] | 270
CCN1C(=O)N2Cc3cc(OC)cc(OC)c3[C@@H](C)C=C2C12CCN(Cc1cc(C)sc1C)CC2 [ER-811365-01] | 84
CCN1C(=O)N2Cc3cc(OC)cc(OC)c3[C@@H](C)C=C2C12CCN(Cc1cc(C)cc(C)c1)CC2 [ER-819762] | 40
CCN1C(=O)N2Cc3cc(OC)cc(OC)c3[C@H](C)C=C2C12CCN(Cc1cc(C)cc(C)c1)CC2 [ER-819763] | 550
CCN1C(=O)N2Cc3cc(OC)cc(OC)c3[C@@H](C)C=C2C12CCN(Cc1cnc[nH]1)CC2 [ER-819780-01] | 200
CCN1C(=O)N2Cc3cc(OC)cc(OC)c3[C@@H](C)C=C2C12CCN(Cc1c[nH]c3ccccc13)CC2 [ER-819783-01] | 35
CCN1C(=O)N2Cc3cc(OC)cc(OC)c3[C@@H](C)C=C2C12CCN(Cc1nn(C)c3ccccc13)CC2 [ER-819800-01] | 23
CCN1C(=O)N2Cc3cc(OC)cc(OC)c3[C@@H](C)C=C2C12CCN(Cc1cn(C)c3ccccc13)CC2 [ER-819804-01] | 40
CCN1C(=O)N2Cc3cc(OC)cc(OC)c3[C@@H](C)C=C2C12CCN(Cc1cn(C(C)=O)c3ccccc13)CC2 [ER-819808-01] | 140
CCN1C(=O)N2Cc3cc(OC)cc(OC)c3[C@@H](C)C=C2C12CCN(Cc1cnoc1C)CC2 [ER-819810-01] | 12
CCN1C(=O)N2Cc3cc(OC)cc(OC)c3[C@@H](C)C=C2C12CCN(Cc1ccc(/C=C/c3ccccc3)cc1)CC2 [ER-819814-01] | 300
CCN1C(=O)N2Cc3cc(OC)cc(OC)c3[C@@H](C)C=C2C12CCN(Cc1ccc3nn[nH]c3c1)CC2 [ER-819820-01] | 90
CCN1C(=O)N2Cc3cc(OC)cc(OC)c3[C@@H](C)C=C2C12CCN(Cc1c[nH]nc1C)CC2 [ER-819826-01] | 67

SMILES | IC50 [nM]
CCN1C(=O)N2Cc3cc(OC)cc(OC)c3[C@@H](C)C=C2C12CCN(Cc1cccnc1C)CC2 [ER-819832-01] | 57
CCN1C(=O)N2Cc3cc(OC)cc(OC)c3[C@@H](C)C=C2C12CCN(Cc1cccnc1OC)CC2 [ER-819833-01] | 47
CCN1C(=O)N2Cc3cc(OC)cc(OC)c3[C@@H](C)C=C2C12CCN(Cc1cnc3ccccc3c1)CC2 [ER-819837-01] | 56
CCN1C(=O)N2Cc3cc(OC)cc(OC)c3[C@@H](C)C=C2C12CCN(Cc1sncc1C)CC2 [ER-819842-01] | 81
CCN1C(=O)N2Cc3cc(OC)cc(OC)c3[C@@H](C)C=C2C12CCN(Cc1ccc3cc[nH]c3c1)CC2 [ER-819844-01] | 67
CCN1C(=O)N2Cc3cc(OC)cc(OC)c3[C@@H](C)C=C2C12CCN(Cc1ccc3nn(C)nc3c1)CC2 [ER-819847-01] | 35
CCN1C(=O)N2Cc3cc(OC)cc(OC)c3[C@@H](C)C=C2C12CCN(Cc1cccn1-c1ccccc1C(F)(F)F)CC2 [ER-819849-01] | 220
CCN1C(=O)N2Cc3cc(O)cc(O)c3[C@@H](C)C=C2C12CCN(Cc1cc(C)cc(C)c1)CC2 [ER-819888-00] | 300
CCN1C(=O)N2Cc3cc(OC)cc(OC)c3[C@@H](C)C=C2C12CCN(Cc1cccn1C)CC2 [ER-819924] | 50
CCN1C(=O)N2Cc3cc(OC)cc(OC)c3[C@H](C)C=C2C12CCN(Cc1cccn1C)CC2 [ER-819925] | 320
CCN1C(=O)N2Cc3cc(OC)cc(OC)c3[C@@H](C)C=C2C12CCN(Cc1nc3ccccc3n1C)CC2 [ER-819926] | 40
CCN1C(=O)N2Cc3cc(OC)cc(OC)c3[C@H](C)C=C2C12CCN(Cc1nc3ccccc3n1C)CC2 [ER-819927] | 210
CCN1C(=O)N2Cc3cc(OC)cc(OC)c3[C@@H](C)C=C2C12CCN(Cc1cc(C)c(F)c(C)c1)CC2 [ER-819931] | 70
CCN1C(=O)N2Cc3cc(OC)cc(OC)c3[C@@H](C)C=C2C12CCN(Cc1ccc(F)c(OC(F)(F)F)c1)CC2 [ER-819933] | 1150
CCN1C(=O)N2Cc3cc(OC)cc(OC)c3[C@@H](C)C=C2C12CCN(Cc1c(F)ccc(C)c1F)CC2 [ER-819934] | 100
CCN1C(=O)N2Cc3cc(OC)cc(OC)c3[C@@H](C)C=C2C12CCN(Cc1cc(C)ccc1F)CC2 [ER-819935] | 130
CCN1C(=O)N2Cc3cc(OC)cc(OC)c3[C@@H](C)C=C2C12CCN(Cc1ccc(F)c(OC)c1)CC2 [ER-819936] | 120
CCN1C(=O)N2Cc3cc(OC)cc(OC)c3[C@H](C)C=C2C12CCN(Cc1cc(C)c(F)c(C)c1)CC2 [ER-819943] | > 10000
CCN1C(=O)N2Cc3cc(OC)cc(OC)c3[C@H](C)C=C2C12CCN(Cc1ccc(F)c(OC(F)(F)F)c1)CC2 [ER-819945] | > 10000
CCN1C(=O)N2Cc3cc(OC)cc(OC)c3[C@H](C)C=C2C12CCN(Cc1c(F)ccc(C)c1F)CC2 [ER-819946] | 2970
